{"source": "patent US9433710B2", "about": "“Biocompatible implant” (LABORATORIS SANIFIT, S. L., priority 2011, dated 2016)", "key": {"RAW 264.7 cells [1]": {"tested_on": "RAW 264.7 cells", "test": "Real-time RT-PCR of osteoclast gene and functional markers", "format": "cell-based, mouse", "conditions": "RANKL-treated cells, 5 days", "experimental": "To examine the effect of IP6 on OCL formation, 20,000 cells/cm2 were seeded in 24-well plates and, after 24 h, the culture medium was replaced with media containing 100 ng/mL RANKL and different doses of IP6 (0.1, 1, 10, 100 μM). Treatments were added after changing the media every 48 h over the course of 5 days. The effect of IP6 on OCL formation was assessed by analysis of the number of TRAP-positive cells, gene expression levels of osteoclast and functional markers, resorption activity on dentin discs and actin ring formation.\nTotal RNA was isolated with Tripure from cells treated as describe above, following the instructions of the manufacturer. RNA was quantified using a spectrophotometer set at 260 nm (Nanodrop, Thermo Fisher Scientific Inc, US).\nThe same amount of total RNA ([…]) from each sample was reverse transcribed to cDNA at 37° C. for 60 minutes in a final volume of […], using High Capacity RNA to cDNA kit (Applied Biosystems, USA). Each cDNA was diluted 1/5 and aliquots, to avoid freezing and thawing cycles, were stored at −20° C. until the PCR reactions were carried out.\nReal-time PCR was performed for two housekeeping genes: 18S rRNA, GAPDH; three osteoclast gene markers: TRAP, CalcR, CFMS; and four osteoclast functional markers: CtsK, MMP-9, Car2 and H+-ATPase.\nReal-time PCR was performed in the Lightcycler 480® (Roche Diagnostics, Mannheim, Germany) using SYBR green detection. Each reaction contained 7 μl Lightcycler-FastStart DNA MasterPLUS SYBR Green I (containing Fast Start Taq polymerase, reaction buffer, dNTPs mix, SYBRGreen I dye and MgCl2), 0.5 μM of each, the sense and the antisense specific primers (Table 1) and 3 μl of the cDNA dilution in a final volume of 10 μl. The amplification program consisted of a preincubation step for denaturation of the template cDNA (5 min 95° C.), followed by 45 cycles consisting of a denaturation step (10 s 95° C.), an annealing step (10 s 60° C.) and an extension step (10 s 72° C.). After each cycle, fluorescence was measured at 72° C. A negative control without cDNA template was run in each assay.\nTo allow relative quantification after PCR, standard curves were constructed from standard reactions for each target and housekeeping genes. The crossing point readings for each of the unknown samples were used to calculate the amount of either the target or housekeeping relative to a standard curve, using the Second Derivative Maximum Method. Relative mRNA levels were calculated as the ratio of relative concentration for the target genes in the same sample using the Advanced Relative Quantification Method provided by the LightCycler 480 analysis software version 1.5 (Roche Diagnostics, Mannheim, Germany)."}, "RAW 264.7 cells [2]": {"tested_on": "RAW 264.7 cells", "test": "Cell proliferation assay (BrdU incorporation)", "format": "cell-based, mouse", "conditions": "IP6 for 24 hours, BrdU for 6 h", "experimental": "RAW cells 264.7 were seeded at a density of 2,500 cells/well in a 96-well plate and cultured for 24 h. After cell attachment, culture media was changed and different doses of IP6 were added. Cells were cultured for additional 24 hours and BrdU was added for the last 6 hours. Incorporation of BrdU was determinated by Cell Proliferation ELISA kit as described by the manufacturer."}, "[3]": {"conditions": "background statement; cited from earlier work"}, "RAW 264.7 cells [4]": {"tested_on": "RAW 264.7 cells", "test": "Resorption pit assay on dentine discs", "format": "cell-based, mouse", "conditions": "1 μM IP6 during osteoclastogenesis", "experimental": "RAW 264.7 cells were seeded on dentine slices at a density of 20,000 cells/cm^2. To study the effect of IP6 on OCL formation cells were cultured with media containing 100 ng/mL RANKL and IP6 (1 μM) over the course of the entire experiment. To study the effect of IP6 on mature osteoclasts-like cells. OCLs were generated by dosing RAW 264.7 cells with RANKL over the course of 6 days and then treated with IP6 (1 μM) for 4 days. After the culturing period, cells were removed from the dentine slices by sonication in 0.1 N NaOH for 2 minutes, stained in hematoxylin for 40 seconds and washed in distilled water. The surface of each dentine slice was examined by light microscopy for evidence of lacunar resorption and quantitative analysis of the resorption area was performed with Image J software 1.44p (NIH, USA)."}, "[5]": {"tested_on": "human umbilical cord mesenchymal stem cells (hUC-MSCs)", "test": "Real-time RT-PCR of osteoblast markers in hUC-MSCs under osteogenic conditions", "format": "cell-based", "conditions": "4 μM IP6 for 19 days", "experimental": "hUC-MSCs from two different donors were seeded (n=12) in 24-well plates and grown to confluence in growth media consisting of DMEM-LG supplemented with penicillin (50 IU/ml), streptomycin (50 μg streptomycin/mil) and 20% FBS. Cells were cultured at 37° C. in a humidified atmosphere of 5% CO2. At confluence (designated as day 0), cells were grown in differentiation media consisting of growth media supplemented with hydrocortisone (200 nM), ascorbic acid (50 μg/ml) and β-glycerophosphate (10 mM). Cell culture media, with or without IP6, was refreshed twice a week over a 19-day time period. The experimental procedure developed in example 5 was used. In this example, Real-time PCR was performed for two housekeeping genes: beta-actin, GAPDH; and four osteoblast markers: Runx2, Col1A, ALP and OC."}, "RAW 264.7 cells [6]": {"tested_on": "RAW 264.7 cells", "test": "LDH cytotoxicity assay", "format": "cell-based, mouse", "conditions": "IP6 for 24 hours", "experimental": "RAW cells 264.7 were seeded at a density of 20,000 cells/cm2 in 24-well plate and cultured for 24 h. After cell attachment, culture media was changed and different doses of) IP6 were added. Cells were cultured for additional 24 hours and culture media was collected to test cytotoxicity (LDH activity). LDH cytotoxicity assay was performed using the Cytotoxicity Detection Kit according to the manufacturer's protocol. This colorimetric assay quantifies activity of LDH released from the cytosol of damaged cells into the supernatant and thus serves as an index of cell death.\nResults were presented relative to the LDH activity in the media of control cells (low control, 0% of cell death) and of cells treated with 1% Triton X-100 (high control, 100% death) using the equation: Cytotoxicity (%)=(exp value−low control)/(high control−low control)*100. 3. Cell Proliferation Assay"}, "RAW 264.7 cells [7]": {"tested_on": "RAW 264.7 cells", "test": "RANKL-induced osteoclast (OCL) formation, TRAP staining", "format": "cell-based, mouse", "conditions": "5 days", "experimental": "Osteoclast-like cells were generated in culture from RAW 264.7 cells. 20,000 cells/cm2 were seeded in 24-well plates and placed in the CO2 incubator overnight to allow the cells to attach to the surface. After 24 h, the culture medium was replaced with media containing 100 ng/mL RANKL. Osteoclasts were successfully generated by dosing with RANKL every 48 h over the course of 5 days. To confirm the generation of multinucleated osteoclast-like cells, the cultured cells were stained for the enzyme TRAP using the TRAP-staining kit, according to the manufacturer's instructions. TRAP is the enzyme that has been used as a marker of osteoclast function for more than 20 years. TRAP-positive multinucleated osteoclasts were visualized by light microscopy and photographed. Each OCL formation assay was performed at least 3 times. To examine the effect of IP6 on OCL formation, 20,000 cells/cm2 were seeded in 24-well plates and, after 24 h, the culture medium was replaced with media containing 100 ng/mL RANKL and different doses of IP6 (0.1, 1, 10, 100 μM). Treatments were added after changing the media every 48 h over the course of 5 days. The effect of IP6 on OCL formation was assessed by analysis of the number of TRAP-positive cells, gene expression levels of osteoclast and functional markers, resorption activity on dentin discs and actin ring formation."}, "bone resorption": {"tested_on": "bone resorption", "conditions": "background statement; cited from earlier work"}}}
{"smiles": "O=P(O)(O)O[C@H]1[C@H](OP(=O)(O)O)[C@@H](OP(=O)(O)O)[C@H](OP(=O)(O)O)[C@@H](OP(=O)(O)O)[C@H]1OP(=O)(O)O", "note": "[IP6, Myo-inositol-1,2,3,4,5,6-hexakisphosphate]", "values": [{"measurement": "MMP-9 mRNA levels", "setting": "RAW 264.7 cells [1]", "value": "decreased"}, {"measurement": "TRAP mRNA levels", "setting": "RAW 264.7 cells [1]", "value": "decreased"}, {"measurement": "calcitonin receptor mRNA levels", "setting": "RAW 264.7 cells [1]", "value": "decreased"}, {"measurement": "cathepsin K mRNA levels", "setting": "RAW 264.7 cells [1]", "value": "decreased"}, {"measurement": "cell proliferation (BrdU)", "setting": "RAW 264.7 cells [2]", "value": "without affecting"}, {"measurement": "hydroxyapatite dissolution", "setting": "[3]", "value": "potent inhibitor"}, {"measurement": "RANKL-induced osteoclast bone resorption ability", "setting": "RAW 264.7 cells [4]", "value": "inhibits"}, {"measurement": "ALP mRNA levels compared to the control group", "setting": "[5]", "value": "higher"}, {"measurement": "Col1A mRNA levels compared to the control group", "setting": "[5]", "value": "lower"}, {"measurement": "OC mRNA levels compared to the control group", "setting": "[5]", "value": "higher"}, {"measurement": "Runx-2 mRNA levels compared to the control group", "setting": "[5]", "value": "higher"}, {"measurement": "osteoblast differentiation of hUC-MSCs", "setting": "[5]", "value": "increases"}, {"measurement": "cell viability (LDH activity)", "setting": "RAW 264.7 cells [6]", "value": "without affecting"}, {"measurement": "osteoclastogenesis induced by RANKL", "setting": "RAW 264.7 cells [7]; 100 ng/mL RANKL", "value": "decreases"}, {"measurement": "number of TRAP positive cells", "setting": "RAW 264.7 cells [7]; RANKL-treated cells", "value": "decreased"}, {"measurement": "bone resorption in animal models of osteoporosis", "setting": "bone resorption", "value": "inhibitor of bone resorption"}]}
